This is an account of results in US11578056B2, “Solid forms comprising (S)-2-(2,6-dioxopiperidin-3-yl)-4-((2-fluoro-4-((3-morpholinoazetidin-1-yl)methyl)benzyl)amino)isoindoline-1,3-dione and salts thereof, and compositions comprising and methods of using the same” (Celgene Corporation, priority 2019, dated 2023).

Broadly, the IC50 is the concentration that gives 50% inhibition. The EC50 is the concentration needed to bring the measured effect to its halfway point.

Holding throughout (assay type): cell-based
In data set [1] the test system is hematological cell lines. Briefly: Hematological cell line viability/apoptosis flow cytometry assay, whole panel. Conditions: panel of hematological cell lines, 0.00015 to 10 μM, 5 days. On the procedure: (§1) Cell Proliferation and Viability Assay Using Hematological Cell Lines: The following exemplary anti-proliferative assay uses exemplary hematological cell lines in the following. The in vitro growth inhibitory activity of Compound 1 described herein was evaluated using a 384-well flow cytometry assay.
The cell lines were plated in 384-well flat bottom plates and assessed with increasing concentrations of compound ranging from 0.00015 to 10 μM or dimethyl sulfoxide (DMSO) control. The final concentration of DMSO was 0.1% (v/v). Following the addition of Compound 1 or DMSO and incubation for 120 hours, cell number and cell death were analyzed by flow cytometry (Attune®, Thermo Fisher) using Annexin V and the live-cell impermeant DNA dye, DRAQ7. […]
Flow cytometry data analysis was then performed using the Flow Jo_v10 software to determine the number of viable cells (Annexin V and DRAQ7 double negative staining cells) and percentage of apoptotic cells (Annexin V positive cells) for each condition. […] The IC50 (50% inhibitory concentration) and Emax (maximum efficacy achieved) values were then calculated by performing nonlinear regression curve fitting using log(inhibitor) vs. normalized response—variable slope analysis on GraphPad Prism 7.03. Area under the curve (AUC) was calculated by performing area under curve analysis on GraphPad Prism 7.03. […]
A general note: In flow cytometry, cells or beads pass a laser one at a time.

Data set [2] has as its system SU-DHL-4 cell line. Briefly: Cell proliferation and viability assay using SU-DHL-4 cell line (CellTiter-Glo, 1536-well). Particulars: Homo sapiens; SU-DHL-4, 120 hours, Cell Titer-Glo luminescence. Here is the method:
Cell Proliferation and Viability Assay Using SU-DHL-4 Cell Line: The following exemplary assay uses a DLBCL cell line, for example, the SU-DHL-4 cell line (Deutsche Sammlung von Mikroorganismen and Zellkulturen GmbH [DSMZ]: catalogue number ACC-495) at 120 hours post-treatment. The seeding density for SU-DHL-4 can be optimized to ensure assay linearity in 1536-well plates.
Increasing concentrations (0.5 nM to 10 μM) of Compound 1 were each spotted in a 20-point dilution fashion (unevenly spaced data points) via an acoustic dispenser (EDC ATS-100) into an empty 1536-well plate. The DMSO concentration was kept constant for a final assay concentration of 0.1% DMSO. […] At the time when exposure of cells to compound began (to), initial viable cell number was assessed via Cell Titer-Gb® Luminescent Cell Viability Assay at a 1 vol: 2 vol ratio according to manufacturer's instructions (Promega Corporation, Madison, Wis.) by quantifying the level of luminescence generated by adenosine-5′-triphosphate (ATP) present in viable cells. After 120 hours, cell viability of the treated cells was assessed via Cell Titer-Gb® and read for luminescence. All growth inhibition curves were processed and evaluated using Activity Base (IDBS, Alameda, Calif.). […]
On the technique in general: In ATP-based viability assays light output follows the ATP content of the culture.

The test system of data set [3] is Karpas-231 cell line. Briefly: Hematological cell line viability/apoptosis flow cytometry assay. Particulars: Karpas-231 (ALL), 120 h. Here is the method:
as §1
(§2) The final concentration of DMSO was 0.1% (v/v). Following the addition of Compound 1 or DMSO and incubation for 120 hours, cell number and cell death were analyzed by flow cytometry (Attune®, Thermo Fisher) using Annexin V and the live-cell impermeant DNA dye, DRAQ7. Phosphatidylserine translocates from the inner layer to the outer layer of the cell membrane early in apoptosis and Annexin V binds to the exposed phosphatidylserine found on the surface of an apoptotic cell. The vital dye DRAQ7 is excluded by intact live cells and only stains cells that have died as a result of apoptosis or necrosis.
(§3) Flow cytometry data analysis was then performed using the Flow Jo_v10 software to determine the number of viable cells (Annexin V and DRAQ7 double negative staining cells) and percentage of apoptotic cells (Annexin V positive cells) for each condition. The live cell count for every concentration was normalized to the DMSO control (considered as 100%) to calculate the percentage of viable cells remaining after treatment and graphed using GraphPad Prism 7.03. The IC50 (50% inhibitory concentration) and Emax (maximum efficacy achieved) values were then calculated by performing nonlinear regression curve fitting using log(inhibitor) vs. normalized response—variable slope analysis on GraphPad Prism 7.03. Area under the curve (AUC) was calculated by performing area under curve analysis on GraphPad Prism 7.03. Similarly, for apoptosis analysis, the percentage of apoptosis combining both “early” (Annexin V positive and DRAQ7 negative) and “late” apoptosis (Annexin V and DRAQ7 positive) cell gates relative to DMSO was graphed using GraphPad Prism 7.03. The AUC, EC50 (concentration of compound that produces half-maximal apoptosis response) and Ymax (maximal percentage of apoptosis achieved) values from apoptosis curves were calculated by performing area under curve analysis and nonlinear regression curve fitting using log(agonist) vs. normalized response—Variable slope analysis on GraphPad Prism 7.03.
Dose-response proliferation curves for the panel of hematological cell lines and non-linear curve-fit regression were used to determine IC50, AUC, and Emax for % viable cells (Emax for viability varies between 100 at low doses and 0 at high doses, which corresponds to inhibition of all viable cells), and dose-response apoptosis curves were used to determine the EC50, AUC, and Ymax for % apoptosis (Ymax for apoptosis varies from 0 at low doses and 100 at higher doses which corresponds to death of all cells). […] Viability and apoptosis for all cell lines was determined by Annexin V/[…] flow cytometry.

The test system of data set [4] is EHEB cell line. The data set is described as above. Conditions: EHEB (CLL), 120 h. On the procedure: as §1
as §2, with “The cell lines were plated in 384-well flat bottom plates and assessed with increasing concentrations of compound ranging from 0.00015 to 10 μM or dimethyl sulfoxide (DMSO) control. The final” for “The final”
as §3
(§4) Dose-response proliferation curves for the panel of hematological cell lines and non-linear curve-fit regression were used to determine IC50, AUC, and Emax for % viable cells (Emax for viability varies between 100 at low doses and 0 at high doses, which corresponds to inhibition of all viable cells), and dose-response apoptosis curves were used to determine the EC50, AUC, and Ymax for % apoptosis (Ymax for apoptosis varies from 0 at low doses and 100 at higher doses which corresponds to death of all cells). Tumor cells were exposed to serial dilutions (0.00015 to 10 μM) of Compound 1 or dimethyl sulfoxide (DMSO) control for 5 days. Viability and apoptosis for all cell lines was determined by Annexin V/7-aminoactinomycin D (7-AAD) flow cytometry.

The subject of data set [5] is SVSL cell line. Described as above. Particulars: SVSL (MZL, SMZL), 120 h. On the procedure: as §1
as §2, with “The cell lines were plated in 384-well flat bottom plates and assessed with increasing concentrations of compound ranging from 0.00015 to 10 μM or dimethyl sulfoxide (DMSO) control. The final” for “The final”
as §3, §4

Where only a bound is given, the exact number is not on record here.

On to `O=C1CC[C@H](N2C(=O)c3cccc(NCc4ccc(CN5CC(N6CCOCC6)C5)cc4F)c3C2=O)C(=O)N1` [Compound 1, (S)-2-(2,6-dioxopiperidin-3-yl)-4-((2-fluoro-4-((3-morpholinoazetidin-1-yl)methyl)benzyl)amino)isoindoline-1,3-dione], for which the “antiproliferative activity and/or apoptotic effects” value in data set [1] is reported as “antiproliferative activity and/or apoptotic effects in almost all hematological cell lines tested”. Besides, the IC50 is below 0.2 µM in data set [2], 0.484 µM in data set [3] (read-out: % Viable Cells IC50), 0.0303 µM in data set [4] (read-out: % Viable Cells IC50) and 0.0952 µM in data set [5] (read-out: % Viable Cells IC50). Moreover, the “% Viable Cells AUC” value in data set [3] came to 449.4; in data set [4], 319.3; in data set [5] it was 368.4. Moreover, the “% Viable Cells Emax” value was 0% in data set [3], 28.68% in data set [4] and 34.07% in data set [5]. In addition, the “Apoptosis AUC” value came to 5.720 in data set [3], 65.03 in data set [4] and 340.2 in data set [5]. The “Apoptosis Ymax” value in data set [3] stood at 5.00%; in data set [4] it was 8.42%; in data set [5] it was 35.5%. Besides, the EC50 in data set [3] stood at 896 µM; in data set [4], 0.506 µM; in data set [5], 0.00284 µM.
